Laboratory results published in patent US20220313769A1, “NEW ANTIOXIDANT COMPOSITION FOR WOUND HEALING” (HISTOCELL, S.L., priority 2019, published 2022).

Test system: epithelial fibroblasts
Test: In vitro wound healing assay or scratch assay
Type: cell-based
Conditions: 0.001% lycopene compared to 5 mM NAC
Protocol: The in vitro wound healing assay or scratch assay measures the capacity of a product to stimulate cellular proliferation (epithelial fibroblasts or keratinocytes) and close a gash without cells in a cellular monolayer in the culture tissue. For the gash to be homogeneous in all the wells, the cells are seeded in wells containing silicone blocks of the same size, which prevent adhesion of the cells in the area occupied by the block. Thus, epithelial fibroblasts were seeded in 24-well plates with the silicone blocks or barriers. After incubating for 12 hours, the barriers were removed and the cells were incubated for 24-72 hours with medium that contained the components separately or combined [different concentrations of locust bean galactomannan (LBG, 0.2, 0.1 and 0.01%), lycopene (0.001%)] and acetylcysteine (NAC, 5 mM). The entire surface of the well covered by the cells or the number of cells was estimated based on the images obtained of the wells with different treatments.

CC(C)=CCC/C(C)=C/C=C/C(C)=C/C=C/C(C)=C/C=C/C=C(C)/C=C/C=C(C)/C=C/C=C(\C)CCC=C(C)C [lycopene]
Capacity of migration of the fibroblasts (FIG. 2B legend): higher capacity of migration
In vitro healing (FIG. 2B): induced in vitro healing better
